Source: article PMC6174881 (Journal of medicinal chemistry, 2018)
Like-named read-outs stand apart in the source and are kept apart here. Square brackets hold non-standard residues; d marks the D form. Peptide text beside a SMILES is read from it. hPhe = N[C@@H](CCc1ccccc1)C(=O)O

Legend:
mMC4R [1] = molecular target: T1, mMC4R (Mus musculus, UniProt P56450)
mMC3R [2] = molecular target: T2, mMC3R (Mus musculus, UniProt P33033); conditions: cited from earlier work
mMC3R [3] = molecular target: T2, mMC3R
mMC5R = mMC5R (Mus musculus, UniProt P41149); assay: AlphaScreen cAMP assay, agonist/inverse agonist activity at mMC5R
mMC3R [4] = molecular target: T2, mMC3R; remark: listed apart in the source
mMC4R [5] = molecular target: T1, mMC4R; conditions: cited from earlier work
mMC1R [6] = molecular target: T3, mMC1R (Mus musculus, UniProt Q01727); assay: cell-based
mMC4R [7] = molecular target: T1, mMC4R; conditions: depending on the cAMP assay utilized; cited from earlier work
mMC1R [8] = molecular target: T3, mMC1R; conditions: maximal stimulation relative to NDP-MSH; sigmoidal dose-response
mMC4R [9] = molecular target: T1, mMC4R; remark: listed apart in the source
MC1R = conditions: read-out: MC1R agonist EC50; cited from earlier work
[10] = calculated using antagonist Ki values
[11] = β-galactosidase reporter gene assay
[12] = calculated using Ki values from Schild analysis

T2 sequence (P33033 whole entry): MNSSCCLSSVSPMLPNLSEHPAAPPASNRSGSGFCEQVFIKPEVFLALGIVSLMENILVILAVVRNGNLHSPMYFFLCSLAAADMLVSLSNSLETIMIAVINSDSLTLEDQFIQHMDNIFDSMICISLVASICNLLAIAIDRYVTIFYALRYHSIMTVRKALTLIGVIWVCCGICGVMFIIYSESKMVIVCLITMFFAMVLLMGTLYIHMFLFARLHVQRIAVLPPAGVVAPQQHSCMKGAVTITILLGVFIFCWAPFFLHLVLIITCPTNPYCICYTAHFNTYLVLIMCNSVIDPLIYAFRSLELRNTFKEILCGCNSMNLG
T1 sequence (P56450 whole entry): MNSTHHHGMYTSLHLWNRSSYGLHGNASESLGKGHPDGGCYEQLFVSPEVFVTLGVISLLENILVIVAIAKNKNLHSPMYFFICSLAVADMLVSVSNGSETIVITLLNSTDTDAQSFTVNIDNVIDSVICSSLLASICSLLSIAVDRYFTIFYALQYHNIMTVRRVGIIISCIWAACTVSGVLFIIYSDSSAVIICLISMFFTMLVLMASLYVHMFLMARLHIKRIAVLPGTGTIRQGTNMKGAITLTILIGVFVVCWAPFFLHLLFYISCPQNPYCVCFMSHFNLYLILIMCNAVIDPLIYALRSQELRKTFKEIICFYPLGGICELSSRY
Sequence of mMC5R (P41149 whole entry): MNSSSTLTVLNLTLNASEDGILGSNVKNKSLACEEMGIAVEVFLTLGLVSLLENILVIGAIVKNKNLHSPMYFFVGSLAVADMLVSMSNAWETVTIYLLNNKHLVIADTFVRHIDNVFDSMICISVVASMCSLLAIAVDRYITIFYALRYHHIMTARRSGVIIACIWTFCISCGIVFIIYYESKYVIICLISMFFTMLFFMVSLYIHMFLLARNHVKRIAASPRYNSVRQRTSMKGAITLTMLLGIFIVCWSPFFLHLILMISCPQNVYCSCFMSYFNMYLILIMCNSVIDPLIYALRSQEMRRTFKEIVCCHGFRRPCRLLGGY
T3 sequence (Q01727 whole entry): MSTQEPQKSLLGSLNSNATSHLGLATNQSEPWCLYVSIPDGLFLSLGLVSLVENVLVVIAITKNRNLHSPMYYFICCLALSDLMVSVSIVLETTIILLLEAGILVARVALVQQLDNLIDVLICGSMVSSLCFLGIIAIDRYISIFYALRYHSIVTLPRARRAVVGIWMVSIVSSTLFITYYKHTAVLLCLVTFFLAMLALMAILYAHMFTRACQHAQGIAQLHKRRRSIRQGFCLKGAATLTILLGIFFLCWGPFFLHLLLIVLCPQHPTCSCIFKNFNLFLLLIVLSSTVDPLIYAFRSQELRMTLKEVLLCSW

Q: For C[C@@H]1NC(=O)[C@H](CC(N)=O)NC(=O)[C@H](CCc2ccccc2)NC(=O)[C@H](Cc2ccccc2)NC(=O)[C@H](CCCNC(=N)N)NC(=O)[C@@H]2CCCN2C(=O)[C@H]2CCCN2C(=O)[C@H](Cc2ccccc2)NC1=O [Compound 13, c[Pro-Arg-Phe-hPhe-Asn-Ala-Phe-DPro]], which Kb (mMC4R [1]) is on record?
A: Its Kb is 5.01 nM.

Q: What about the “mMC4R potency compared to lead peptide 1 in words” value (mMC4R [1]) of the same molecule?
A: Its value is “equipotent to the lead peptide”.

Q: What about the “selectivity for the mMC4R over the mMC3R” value (mMC4R [1]; [10]) of the same molecule?
A: The value was “approximately 500 fold”.

Q: And the “mMC3R antagonist activity in words” value (mMC3R [2]; [11])?
A: Its value is “did not possess antagonist activity”.

Q: And the “Antagonist mMC3R pA2” value (mMC3R [3])?
A: Its value is 5.6±0.2.

Q: And the EC50 (mMC5R)?
A: The EC50 was > 100 µM.

Q: And the Kb (mMC3R [4])?
A: Its Kb is 2510 nM.

Q: What about the “Antagonist mMC3R pA2” value (mMC3R [4]; Schild analysis with agonist NDP-MSH, pA2 = −log[Ki]) of the same molecule?
A: Its value is 5.6.

Q: And the “fold reduced potency at the mMC3R compared to 1” value (mMC3R [4]; [12])?
A: The value was 5 fold.

Q: What about the “fold less potent than 1 at the mMC4R” value (mMC4R [5]; [11]) of the same molecule?
A: Its value is 5 fold.

Q: What does the source list for C[C@@H]1NC(=O)[C@H](CC(N)=O)NC(=O)[C@H](Cc2ccccc2)NC(=O)[C@H](Cc2ccccc2)NC(=O)[C@H](CCCNC(=N)N)NC(=O)[C@@H]2CCCN2C(=O)[C@H]2CCCN2C(=O)[C@H](Cc2ccccc2)NC1=O [Compound 1, c[Pro-Arg-Phe-Phe-Asn-Ala-Phe-DPro]]?
A: EC50 (mMC1R [6]): 2800 ± 600 nM; mMC4R pA2 (mMC4R [7]): 7.7–8.1; mMC1R partial agonist activity (X%), receptor stimulated to given percent (mMC1R [8]): 80%

Q: For C[C@@H]1NC(=O)[C@H](CCCNC(=N)N)NC(=O)[C@H](CCc2ccccc2)NC(=O)[C@H](Cc2ccccc2)NC(=O)[C@H](CCCNC(=N)N)NC(=O)[C@@H]2CCCN2C(=O)[C@H]2CCCN2C(=O)[C@H](Cc2ccccc2)NC1=O [Compound 21, c[Pro-Arg-Phe-hPhe-Arg-Ala-Phe-DPro]] (cyclo(RF[hPhe]RAF[dP]P)), which “mMC4R potency compared to AGRP in words” value (mMC4R [1]) is on record?
A: Its value is “equipotent to AGRP”.

Q: And the “fold increase in potency at the mMC4R compared to 1” value (mMC4R [1]; [12])?
A: Its value is 6 fold.

Q: What about the “fold decrease in mMC4R selectivity compared to 1” value (mMC4R [1]; [10]) of the same molecule?
A: The value was 7 fold.

Q: And the “mMC5R activity in words” value (mMC5R; up to 100 μM)?
A: Its value is “did not result in mMC5R stimulation”.

Q: What about the “fold less potent than AGRP at the mMC3R” value (mMC3R [4]) of the same molecule?
A: Its value is 5 fold.

Q: And the “Antagonist mMC4R pA2” value (mMC4R [9])?
A: The value was 8.9.

Q: What does the source list for “Tyr-c[Cys-Arg-Phe-Phe-Asn-Ala-Phe-Cys]-Tyr [hAGRP(109–118), reference compound]”?
A: EC50 (MC1R): 3000 nM; mMC3R activity in words (mMC3R [2]; β-galactosidase reporter gene bioassay, up to 10 μM): No activity (Agonist or Antagonist); Antagonist mMC4R pA2 (mMC4R [5]; β-galactosidase reporter gene bioassay): 6.8±0.4
